Our source for the MIC and Inhibiting areola diameter values is patent publication US6689372B1, “Microbicidal active substances” (Ciba Specialty Chemicals Corporation, priority 1998, dated 2004).

Holding throughout (assay type): cell-based
The test system of assay [1] is Aspergillus niger ATCC 6275. As to the kind of experiment: Agar incorporation test (MIC test). To be noted: A. niger. As for the experimental part: (§1) Determination of the Minimum Inhibiting Concentration (MIC) in the Agar Incorporation Test (MIC Test)
(§2) When the nutrient substrate has solidified, 10 μl portions of the following organism dilutions of the test strains in 0.85% NaCl solution are spotted onto the agar medium:
(§3) The plates are incubated at 37° C. for 24 hours (A.niger 3 days at 28° C.) and then the highest dilution of the test substance at which growth is just no longer discernible (corresponds to MIC) is determined.

Assay [2] has as its system Pseudomonas aeruginosa CIP A-22. Put plainly: Agar incorporation test (MIC test). As to conditions: P. aeruginosa. On the procedure:
as §1, §2, §3

In assay [3] the test system is Staphylococcus epidermidis ATCC 12228. As to the kind of experiment: Agar incorporation test (MIC test). To be noted: S. epidermidis. As for the experimental part:
as §1, §2, §3

For assay [4], the system named is Staphylococcus aureus ATCC 9144. As to the kind of experiment: Agar incorporation test (MIC test). To be noted: S. aureus. As for the experimental part: as §1, §2, §3
Assay [5] has as its system Candida albicans ATCC 10231. Put plainly: Agar incorporation test (MIC test). To be noted: C. albicans. On the procedure: as §1, §2, §3
In assay [6] the test system is Escherichia coli NCTC 8196. Put plainly: Agar incorporation test (MIC test). As to conditions: E. coli. On the procedure: as §1, §2, §3
Assay [7] concerns Corynebacterium xerosis ATCC 373. Put plainly: Agar incorporation test (MIC test). To be noted: C. xerosis. As for the experimental part:
as §1, §2, §3

In assay [8] the test system is Staphylococcus aureus ATCC 9144. Put plainly: Agar diffusion test. Further: values in mm. As to conditions: S. aureus ATCC 9144. As for the experimental part:
(§4) Determination of antimicrobial activity in the agar diffusion test [table] After the bacteria precultures have been incubated, they are diluted 1:100 with dilution medium. 3.5 ml of that dilution of the bacteria are introduced into 500 ml of agar and from that organism-containing agar plates of about 15 ml of medium are poured. […] After the agar plates have cooled and solidified, wells are punched in the agar (diameter 10 mm) and 100 μl of test substance solution are introduced into each well. After incubation of the plates, the diameters of the growth-free inhibiting areolas in the agar are determined.

Assay [9] concerns Pseudomonas aeruginosa ATCC 15 442. As to the kind of experiment: Agar diffusion test. Further: values in mm. To be noted: P. aeruginosa ATCC 15 442. On the procedure:
as §4

The test system of assay [10] is Candida albicans ATCC 10231. Put plainly: Agar diffusion test. Further: values in mm. As for the experimental part: as §4
Assay [11] has as its system Escherichia coli NCTC 8196. Put plainly: Agar diffusion test. Further: values in mm. As to conditions: E. coli NCTC 8196. As for the experimental part: as §4
In assay [12] the test system is Aspergillus niger ATCC 6275. As to the kind of experiment: Agar diffusion test. Further: values in mm. As to conditions: A. niger ATCC 6275. On the procedure: Determination of antimicrobial activity in the agar diffusion test [table] After the bacteria precultures have been incubated, they are diluted 1:100 with dilution medium. 3.5 ml of that dilution of the bacteria are introduced into 500 ml of agar and from that organism-containing agar plates of about 15 ml of medium are poured. The test substances are dissolved in a suitable solvent in final concentrations of 1-3%. After the agar plates have cooled and solidified, wells are punched in the agar (diameter 10 mm) and 100 μl of test substance solution are introduced into each well. After incubation of the plates, the diameters of the growth-free inhibiting areolas in the agar are determined.

Setting [13] is: 1% in ethanol, C. albicans ATCC 10231.
Where [14] appears, read: 2% in ethanol, C. albicans ATCC 10231.

The structures appear in SMILES notation.

Consider `O=c1oc(-c2ccccc2O)ns1` [compound 101], for which the MIC in assay [1] (solution in EtOH) is 100 ppm; in [2] (solution in EtOH), 1000 ppm; in assay [3] (solution in EtOH), 100 ppm; in [4] (solution in EtOH) it was 100 ppm; in assay [5] (solution in EtOH), 100 ppm; in assay [6] (solution in EtOH) it was 1000 ppm. This molecule showed an MIC in [7] (solution in EtOH) of 250 ppm.

Take `O=c1oc(-c2cccnc2)ns1` [compound 103]: the MIC in [1] (solution in EtOH) was 600 ppm; in assay [2] (solution in EtOH), 600 ppm; in assay [3] (solution in EtOH) it was 100 ppm; in [4] (solution in EtOH) it was 100 ppm; in assay [5] (solution in EtOH), 100 ppm; in [6] (solution in EtOH), 600 ppm. Further, in assay [7] (solution in EtOH), the MIC was determined as 200 ppm.

Take `O=c1oc(-c2ccc([N+](=O)[O-])o2)ns1` [compound 105]: the Inhibiting areola diameter is on record as 4/4 in [8] (0.1% in THF); 10/10 in assay [8] (0.5% in THF); 11/11 in assay [8] (1.0% in THF); 11/11 in assay [8] (3.0% in THF); 0/0 in assay [9] (0.1% in THF); 1/1 in [9] (0.5% in THF). The Inhibiting areola diameter in assay [9] (1.0% in THF) is recorded as 5/5; in assay [9] (3.0% in THF) it was 6/6; in assay [10] (0.1% in THF, C. albicans ATCC 10 231), 3/3; in assay [10] (0.5% in THF, C. albicans ATCC 10 231), 4/4; in assay [10] (1.0% in THF, C. albicans ATCC 10 231), 8/8; in [10] (3.0% in THF, C. albicans ATCC 10 231), 9/9. Besides, the Inhibiting areola diameter in [11] (0.1% in THF) is 1/1; in [11] (0.5% in THF), 3/3; in assay [11] (1.0% in THF) it was 6/6; in assay [11] (3.0% in THF) it was 6/6.

Take `O=c1oc(-c2ccccc2)ns1` [compound 106]: the MIC in assay [1] (solution in DMSO) was determined as 250 ppm; in [2] (solution in DMSO), 1000 ppm; in assay [3] (solution in DMSO), 10 ppm; in assay [4] (solution in DMSO) it was 10 ppm; in assay [5] (solution in DMSO) it was 100 ppm; in [6] (solution in DMSO), 100 ppm. Besides, the MIC in [7] (solution in DMSO) is on record as 10 ppm.

For the molecule `O=c1oc(-c2ccc(Cl)cc2)ns1` [compound 107], the Inhibiting areola diameter in assay [12] (1% in ethanol) was 0/0; in [12] (2% in ethanol) it was 0/0; in assay [8] (1% in ethanol) it was 4/4; in [8] (2% in ethanol), 5/5; in assay [10] (setting [13]) it was 3/3; in [10] (setting [14]) it was 4/4. For the same molecule, the Inhibiting areola diameter in assay [11] (1% in ethanol) and in [11] (2% in ethanol) was 1/1 in each case.

On to `Cc1nsc(=O)o1` [compound 108], for which the Inhibiting areola diameter in assay [12] (1% in ethanol) was 4/5; in assay [12] (2% in ethanol), 12/12; in assay [8] (1% in ethanol) it was 12/12; in [8] (2% in ethanol) it was 20/20; in assay [10] (setting [13]), 8/8; in [10] (setting [14]), 10/10. Besides, the results for the Inhibiting areola diameter in [11] (1% in ethanol) and in [11] (2% in ethanol) were 1/1 and 3/2, respectively.
